Experimental data reported in US11357740B2, “Cannabidiol for enhancing the therapeutic effect of a steroid” (STERO BIOTECHS LTD., priority 2013, dated 2022).

Assays:
[1] = test system: patient suffering from psychological or neurological disorders; conditions: doses of up to 1500 mg per day; cited from earlier work
[2] = test system: patients experiencing severe refractory chronic GVHD; assay: Case studies: CBD for severe refractory chronic GVHD; type: in vivo, human; conditions: person
Experimental: This example describes cases studies that show the surprising efficacy of CBD treatment of patients experiencing severe refractory chronic GVHD.
A person with acute lymphoid leukemia in first complete remission, underwent an allogeneic hematopoietic cell transplantation from a matched unrelated donor with myeloablative conditioning consisting of total body irradiation (12 Gray), cyclophosphamide and ATG (Fresenius, 15 mg/kg). The patient developed an overlap syndrome (concomitant acute plus chronic GVHD features) during the first month after transplantation which was treated with cyclosporine and steroids until complete remission. Immunosuppression was stopped 5 months after transplantation. Eighteen months after transplantation they developed chronic extensive GVHD with involvement of the oral cavity, eyes, liver, joints and skin. Skin involvement progressed to sclerosis. They started again cyclosporine and oral steroids with no improvement. There was no further improvement with imatinib (Gleevec). […] Unexpectedly, Prednisone effective therapeutic dose was tapered off up to 7.5-10 mg QD (20-50% reduction in the steroid's dose).
A person with acute myeloid leukemia in second complete remission underwent an allogeneic hematopoietic cell transplantation from a matched sibling donor with myeloablative conditioning consisting of busulfex (12.8 mg/kg) and cyclophosphamide (120 mg/kg). The patient experienced relapse in the central nervous system and breasts 12 months after transplantation, received chemo-radiotherapy and achieved complete remission. Shortly after remission, they developed chronic extensive GVHD with severe involvement of the eyes, joint and skin. Skin involvement progressed to severe sclerosis with limited range of motion of the joints. They were unresponsive to cyclosporine and oral steroids and therefore they were stopped after few months.

[3] = test system: patients with extensive chronic GVHD after allogeneic HCT; assay: CBD treatment for chronic GVHD (12 patients); type: in vivo, human; conditions: oral CBD 50 mg twice a day
Experimental: Twelve patients over 18 years of age with extensive chronic GVHD after allogeneic HCT were recruited at the Rabin Medical Center in Israel. Patients having a history of psychosis or asthma, or consuming Cannabis during the last two months before transplantation were excluded from the study.
Patients were presently treated with a calcineurine inhibitor (cyclosporine or tacrolimus) with or without oral prednisone.
Patients were given oral CBD 50 mg twice a day.

[4] = test system: patients experiencing severe acute GVHD; assay: Case studies: CBD for severe (grade 3-4) and/or refractory acute GVHD; type: in vivo, human
Experimental: This example describes cases studies that show the surprising efficacy of CBD treatment of patients experiencing severe acute GVHD.
A person with acute myeloid leukemia in second complete remission, underwent an allogeneic hematopoietic cell transplantation from a matched sibling donor with a myeloablative conditioning consisting of fludarabine (160 mg/m^2) and busulfex (12.8 mg/kg). One month post-transplantation they developed classic grade 4 acute GVHD of the gastro-intestinal tract (GIT) confirmed by intestinal biopsy. They were refractory to cyclosporine and high-dose steroids, and was then given second line therapy consisting of mycophenolate mofetil followed by extra-corporeal photopheresis (ECP), from which a partial response was obtained. The patient then developed severe myopathy and became bed restricted. During tapering off of steroids they had relapse of grade 4 acute GVHD with GIT and skin involvement. They were refractory to high-dose steroids and thus started oral cannabidiol (CBD) 150 mg twice a day. […] CBD was stopped several weeks later upon remission. […] Nevertheless, they developed chronic GVHD for which they were given low dose cyclosporine and low dose prednisone.
A person with Philadelphia positive acute lymphoid leukemia in first complete remission underwent an allogeneic hematopoietic cell transplantation from a matched unrelated donor with reduced intensity conditioning consisting of fludarabine (150 mg/m^2), busulfex (12.8 mg/kg) and ATG (Fresenius, 15 mg/kg). Two months after transplantation, they developed generalized erythroderma ranked as stage 3 and grade 2 acute GVHD of the skin, which was confirmed by skin biopsy. Due to refractoriness to tacrolimus, systemic and topical steroids they started ECP with some improvement but without remission. They were still on tacrolimus and steroids when 11 months post-transplantation they had severe worsening of their skin rash with generalized erythroderma and desquamation ranked as stage 4 and grade 4 acute GVHD of the skin. They started oral CBD 150 mg twice a day and prednisone 40 mg once a day. […] CBD was stopped 2 months later after obtaining complete remission of acute GVHD.
A person with acute myeloid leukemia in first complete remission, underwent an allogeneic hematopoietic cell transplantation from a matched sibling donor with myeloablative conditioning consisting of busulfex (12.8 mg/kg) and cyclophosphamide (120 mg/kg). Eight months post-transplantation, leukemia relapsed. They received salvage chemotherapy followed by donor lymphocyte infusion (DLI) and achieved a complete hematologic remission. One month post DLI they developed jaundice with bilirubin levels of 11.5 mg % (normal≤1 mg %) and biopsy proven late onset acute GVHD of the liver ranked as stage 3 and grade 3. They were refractory to high-dose steroids and started oral CBD 150 mg twice a day.

[5] = test system: patients undergoing allogeneic hematopoietic stem cell transplantation; assay: Prevention of acute and chronic GVHD in allogeneic stem cell transplanted patients (46 patients); type: in vivo, human; design: Non-relapse mortality / Overall survival rate: concentration or dose not given beside the values
Experimental: Forty six (46) patients over 18 years of age undergoing allogeneic hematopoietic stem cell transplantation at the Rabin Medical Center in Israel were recruited. Patients having history of psychosis or asthma, or consuming Cannabis during the last two months before transplantation were excluded from the study.
All patients received standard GVHD prophylaxis consisting of cyclosporine twice a day starting on day −1 with target trough levels ≥200 ng/mL in combination with short course of methotrexate (15 mg/sqm on day +1 and 10 mg/sqm on days +3 and +6). Most patients transplanted from unrelated donors received anti-T-cell globulin (ATG Fresenius) at a low dose of 5 mg/kg on days −3 to −1.
The investigational agent, CBD (STI Pharmaceuticals, Brentwood, Essex, UK) was dissolved in olive oil at a concentration of 2.5% and was orally administered from day −7 through day +30. The starting dose of CBD was 10 mg twice a day, and doses were doubled every other day to a maximal dose of 150 mg twice a day.
To estimate the prophylactic and therapeutic effect of Cannabidiol, the patients were carefully monitored and documented for the presentation of acute and chronic GVHD symptoms, the time of onset, the severity of the symptoms, the responsiveness to treatment, and the occurrence of infections.
Furthermore, a panel of 4 serum cytokines (soluble TNF receptor 1 (sTNFRI), soluble IL-2 receptor alpha (sIL2R-alpha), hepatocyte growth factor (HGF), and IL8)) were monitored. Blood samples were taken at days −7(A), 0(B), +14(C), and +28(D). The difference in blood levels between the various time points (B-A, C-B and D-C) were assessed.
Primary end points were safety and cumulative incidence of grade 2-4 and grade 3-4 GVHD by day +100. The secondary end points were cumulative incidence of chronic and severe chronic GVHD, non-relapse mortality (NRM), relapse incidence (RI), and overall survival (OS). NRM mortality was defined as death while the patient was in CR. Cumulative incidence curves were used for acute GVHD and chronic GVHD estimation, taking into account relapse and death as competing risks. Cumulative incidence curves were used for RI and NRM taking into account disease recurrence and death as competing events. Probabilities of OS and LFS were calculated using the Kaplan-Meier estimates.

[6] = test system: patients with late onset acute GVHD given steroids; assay: Case studies: CBD reduces the effective dose of steroids (late onset acute GVHD); type: in vivo, human
Experimental: Person one with secondary acute myeloid leukemia in 1st complete remission, underwent and allogeneic hematopoietic cell transplantation from a matched unrelated donor with a myeloablative conditioning consisting of fludarabine (160 mg/m^2), busulfex (12.8 mg/kg) and ATG (Fresenius, 15 mg/kg). Eleven months after transplantation they developed jaundice with bilirubin level of 4.2 mg % and biopsy proven late onset acute GVHD of the liver ranked as stage 2 and grade 3. […] They started oral CBD 150 mg BID. […] Steroids could be tapered off to a low dose of 7.5 mg QD.
person two with refractory follicular lymphoma underwent an allogeneic hematopoietic cell transplantation from a matched unrelated donor with a reduced intensity conditioning consisting of fludarabine (150 mg/m^2), melphalan (100 mg/m^2) and ATG (Fresenius 15 mg/kg) and achieved a complete remission. Two years later they relapsed and received salvage immune-chemotherapy with bendamustine and rituximab followed by DLI and achieved a complete remission. One month later they were admitted with severe late onset acute GVHD with skin (rash) and upper (nausea and vomiting) plus lower gastrointestinal involvement (bloody diarrhea, crampy abdominal pain and severely inflamed and ulcerated mucosa). Biopsy proven GVHD was ranked as stage 3 of the skin and stage 4 and grade 4 acute GVHD of the GIT. They started cyclosporine and high-dose steroids. Despite skin response, GVHD of the GIT was refractory to prolonged systemic treatment of steroids. […] Prednisone was tapered off to 20 mg QD (40%)—found to be therapeutically effective.

[7] = with calcineurine inhibitor with or without oral prednisone
[8] = person, stage 3 grade 3 acute GVHD of the liver, oral CBD 150 mg twice a day
[9] = of the 11 patients with chronic GVHD

SMILES: C=C(C)[C@@H]1CCC(C)=C[C@H]1c1c(O)cc(CCCCC)cc1O [CBD, 2-[(6R)-3-Methyl-6-prop-1-en-2-yl-1cyclohex-2-envyl]-5pentylbenzene-1,3-diol]
- adverse effects in clinical studies [1]: without any significant adverse effects
- clinical response, chronic extensive GVHD with severe sclerosis ([2]; cyclosporine and oral steroids stopped, oral CBD 75 mg BID, after several months): significant improvement of their skin and joints range of motion
- clinical response, chronic extensive GVHD (oral cavity, eyes, liver, joints, skin sclerosis) ([2]; no improvement with cyclosporine, oral steroids, imatinib, oral CBD 75 mg twice a day, after several weeks): resolved their liver and oral GVHD and significantly improved skin sclerosis and joint range of motion
- Prednisone effective therapeutic dose tapered off up to ([2]; oral CBD 75 mg twice a day): 7.5-10 mg QD
- reduction in the steroid's dose ([2]; oral CBD 75 mg twice a day): 20-50%
- effect on severity of chronic GVHD (conclusion) [3]: reduces the severity of chronic GVHD
- clinical improvement, patients with lung involvement [3, 7]: 2 out of 3
- clinical improvement, patients with oral involvement [3, 7]: 3 out of 3
- clinical improvement, patients with skin involvement [3, 7]: 6 out of 8
- effect on refractory steroid dose (conclusion of case studies) ([4]; acute Grade 3 and Grade 4 GVHD): rendered a refractory dose of a steroid-therapeutically effective
- clinical response, grade 4 acute GVHD with GIT and skin involvement ([4]; person, refractory to high-dose steroids, oral CBD 150 mg twice a day, after 14 days): complete cessation of diarrhea and resolution of their skin rash
- bilirubin level after treatment ([4]; person, stage 3 grade 3 acute GVHD of the liver, baseline 11.5 mg %, refractory to high-dose steroids, oral CBD 150 mg twice a day): 0.7-1.3 mg %
- jaundice [4, 8]: resolved within few days
- steroid tapering [4, 8]: tapered off until complete cessation
- acute GVHD status at follow-up ([4]; person, eighteen months following cessation of treatment): no symptoms or signs of acute GVHD
- skin rash and desquamation, stage 4 and grade 4 acute GVHD of the skin ([4]; person, oral CBD 150 mg twice a day and prednisone 40 mg once a day, on tacrolimus): improved promptly until complete resolution
- Cumulative incidence of relapse ([5]; 6 months after HCT): 22%
- Non-relapse mortality ([5]; 6 months after HCT): 11.6%
- Overall survival rate ([5]; 6 months after HCT): 76%
- Cumulative incidence of relapse ([5]; 12 months after HCT): 31%
- Non-relapse mortality ([5]; 12 months after HCT): 11.6%
- Overall survival rate ([5]; 12 months after HCT): 70%
- patients who developed grade 2 to 4 acute GVHD ([5]; 46 patients recruited, CBD prophylaxis): Six
- Cumulative incidence of relapse ([5]; 100 days after HCT): 12%
- Non-relapse mortality ([5]; 100 days after HCT): 8.1%
- Overall survival rate ([5]; 100 days after HCT): 84%
- effect on incidence and severity of GVHD (conclusion) ([5]; after allogeneic stem cell transplantation): reduces the incidence and severity of acute and chronic GVHD
- patients in whom chronic GVHD occurred ([5]; among patients surviving more than 100 days after HCT (n=33)): 11 patients
- Cumulative incidence rate of extensive chronic GVHD ([5]; at 1 year): 19%
- Cumulative incidence rate of overall chronic GVHD ([5]; at 1 year): 43%
- Cumulative incidence rate of grade 2 to 4 acute GVHD ([5]; at day 100): 12.4%
- Cumulative incidence rate of grade 3 to 4 acute GVHD ([5]; at day 100): 5%
- patients with limited chronic GVHD [5, 9]: 8 patients
- patients with severe chronic GVHD [5, 9]: 3 patients
- grade 3 to 4 toxicities related to CBD ([5]; oral CBD 2.5% in olive oil, day -7 to +30, 10 mg up to 150 mg twice a day, with cyclosporine + methotrexate prophylaxis): No grade 3 to 4 toxicities related to CBD were observed
- toxicity and psychotropic effects (conclusion) ([5]; preventing acute and chronic GVHD): low toxicity and lack of psychotropic effects
- Median time to onset of grade 2 to 4 acute GVHD ([5]; range 41 to 150 days): 60 days
- median time to onset of chronic GVHD ([5]; range 125 to 335 days): 159 days
- jaundice and bilirubin, stage 3 and grade 3 acute GVHD of the liver ([6]; person one, bilirubin 8.5 mg % on tacrolimus and steroids, oral CBD 150 mg BID): Jaundice resolved gradually and bilirubin dropped to normal levels
- steroid dose tapered off to ([6]; person one, oral CBD 150 mg BID): 7.5 mg QD
- clinical response, stage 4 and grade 4 acute GVHD of the GIT ([6]; person two, refractory to prolonged systemic steroids, oral CBD 150 mg BID with steroids): very good partial response (VGPR)
- response upon renewal of treatment ([6]; person two, methylprednisolone 0.5 mg/kg QD and CBD 150 mg BID): A second VGPR was obtained
- Prednisone tapered off to ([6]; person two, oral CBD 150 mg BID): 20 mg QD
- Prednisone tapered dose, printed percentage ([6]; person two, oral CBD 150 mg BID, prednisone 20 mg QD): 40%
- outcome after discontinuing CBD ([6]; person two, two months later, CBD discontinued without doctors' approval): diarrhea resumed following discontinuing CBD
